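1) Cells in 96-well plates. 2) Compound, 48 h, 5 concentrations. 3) Linear interpolation between surrounding doses. 4) Unreached endpoint = highest concentration. At the GI50, growth is halved. TGI: concentration producing complete growth inhibition.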
Tests used:
Assay in all cases: DTP human tumour cell line panel, 48 h
CCRF-CEM leukemia = tested on: CCRF-CEM leukemia
HCC-2998 colon = tested on: HCC-2998 colon
HT29 colon = tested on: HT29 colon
KM12 colon = tested on: KM12 colon
OVCAR-4 ovarian = tested on: OVCAR-4 ovarian
SK-MEL-5 melanoma = tested on: SK-MEL-5 melanoma
SR leukemia = tested on: SR leukemia
MDA-MB-231 breast = tested on: MDA-MB-231 breast
T-47D breast = tested on: T-47D breast
MCF7 breast = tested on: MCF7 breast

Compound | TGI (CCRF-CEM leukemia) | TGI (HCC-2998 colon) | TGI (HT29 colon) | TGI (KM12 colon) | TGI (OVCAR-4 ovarian) | TGI (SK-MEL-5 melanoma) | TGI (SR leukemia) | GI50 (CCRF-CEM leukemia) | GI50 (HCC-2998 colon) | GI50 (HT29 colon) | GI50 (KM12 colon) | GI50 (MDA-MB-231 breast) | TGI (MDA-MB-231 breast) | GI50 (SR leukemia) | GI50 (T-47D breast) | TGI (T-47D breast) | GI50 (OVCAR-4 ovarian) | GI50 (MCF7 breast) | TGI (MCF7 breast) | GI50 (SK-MEL-5 melanoma)
COC(=O)C1=Cc2cc(OC)c(OC)c(OC)c2[C@H](c2cc(OC)c(OC)c(OC)c2)C1C(=O)OC (some centres undefined) | > 100 µM | > 100 µM | > 100 µM | > 100 µM | > 100 µM | > 100 µM | – | – | – | – | – | – | – | – | – | – | – | – | – | –
CCOC(=O)C1SC(=Nc2cccc(Cl)c2C)N=C1C (centres undefined) | – | > 10 µM | 32.6 µM | 77.7 µM | 89.5 µM | – | 61.2 µM | – | – | – | – | – | – | – | – | – | – | – | – | –
CCN(CC)CC(C)(C)C(=O)/C=C/c1cccc(/C=C/C(=O)C(C)(C)CN(CC)CC)c1 | 11.6 µM | 2.51 µM | 1.08 µM | 1.77 µM | 1.41 µM | 2.97 µM | 1.68 µM | – | – | – | – | – | – | – | – | – | – | – | – | –
OC(c1cc(-c2cccc(Cl)c2)nc2ccccc12)C1CCCCN1 (centres undefined) | 4.74 µM | 4.15 µM | 3.42 µM | 3.2 µM | – | – | 3.8 µM | 2080 nM | 2090 nM | 1700 nM | 1790 nM | 1660 nM | 3.37 µM | 1270 nM | 2090 nM | 3930 nM | – | – | – | –
C=C=C(C(=O)OC)S(=O)c1ccccc1[N+](=O)[O-] (centres undefined) | 77 µM | > 100 µM | > 100 µM | > 100 µM | > 100 µM | > 100 µM | – | – | – | – | – | – | – | – | – | – | – | – | – | –
CN(C)c1ccc(/C=C/C(=O)[O-])cc1.CN(C)c1ccc(/C=C/C(=O)[O-])cc1.[Cu+2] | > 100 µM | > 100 µM | > 100 µM | > 100 µM | > 100 µM | 93.5 µM | – | – | – | – | – | – | – | – | – | – | 14900 nM | – | – | –
Cc1cc([N+](=O)[O-])ccc1Sc1c2ccccc2nc2cc(Cl)ccc12 | > 100 µM | > 100 µM | – | 50.4 µM | > 100 µM | > 100 µM | > 100 µM | – | – | – | – | – | – | – | – | – | – | – | – | –
Nc1c(-c2cn(Cc3ccccc3)c3ccccc23)[n+]([O-])c2ccccc2[n+]1[O-] | > 100 µM | > 100 µM | > 100 µM | > 100 µM | > 100 µM | 51.3 µM | – | – | – | – | – | – | – | – | – | – | – | – | – | –
O=[N+]([O-])c1ccc(C2CC(c3ccccc3Cl)=Nc3ccccc3S2)cc1 (centres undefined) | 6.77 µM | 54.2 µM | 45.9 µM | 13.4 µM | 24.5 µM | 12.8 µM | 5.27 µM | – | – | – | – | – | – | – | – | – | – | – | – | –
COc1ccc(C(CCC(C)=O)C(=O)O)cc1OC (centres undefined) | – | – | > 100 µM | > 100 µM | > 100 µM | > 100 µM | > 100 µM | – | – | – | – | – | – | – | – | – | – | – | – | –
CC[C@H]1CN2CCc3cc(OC)c(OC)cc3C2C[C@@H]1CC1NCCc2cc(OC)c(OC)cc21 (some centres undefined) | 0.204 µM | 0.065 µM | 0.0479 µM | 0.0986 µM | 0.0481 µM | 0.0928 µM | – | 18.6 nM | – | – | – | – | 0.0994 µM | – | – | 77.3 nM | – | 14.6 nM | 1.22 µM | –
C=CC(=O)NCCSCCCOC1(C(=O)O)CC(O)C(NC(C)=O)C(C(O)C(O)CO)O1 (centres undefined) | – | > 100 µM | > 100 µM | > 100 µM | > 100 µM | – | > 100 µM | – | – | – | – | – | – | – | – | – | – | – | – | –
CC1=Nc2ccccc2NC(c2ccoc2)C1 (centres undefined) | > 100 µM | > 100 µM | > 100 µM | > 100 µM | > 100 µM | > 100 µM | > 100 µM | – | – | – | – | – | – | – | – | – | – | – | – | –
c1ccc([CH2][Sn]([CH2]c2ccccc2)([O]c2cccc3cccnc23)[O]c2cccc3cccnc23)cc1 | – | 0.418 µM | 0.361 µM | 0.515 µM | 0.374 µM | 0.415 µM | – | – | 201 nM | 139 nM | 223 nM | – | – | – | – | – | 184 nM | – | – | 213 nM
Cc1cc([N+](=O)[O-])ccc1NC(=O)C(=O)C(C(=O)c1ccccc1-c1ccccc1)C1OC(=O)c2ccccc21 (centres undefined) | > 100 µM | 29.1 µM | 41.9 µM | 32.5 µM | 77.9 µM | 28.7 µM | 54.7 µM | – | – | – | – | – | – | – | – | – | – | – | – | –
COc1ccc(/C=C(/C(=O)N2CCN(c3ccccc3)CC2)c2cc(OC)c(OC)c(OC)c2)cc1N | > 100 µM | > 100 µM | 13.3 µM | > 100 µM | > 100 µM | 10.9 µM | > 100 µM | 301 nM | 556 nM | 366 nM | 423 nM | 411 nM | 24.4 µM | 409 nM | – | – | 3050 nM | 326 nM | > 100 µM | 386 nM
COC1=CC(c2ccc[nH]2)=N/C1=C\c1[nH]c(C)c(CC(=O)OCc2ccccc2)c1CCC(=O)OCc1ccccc1 | 2.29 µM | – | 2.5 µM | 2.26 µM | 17.6 µM | – | 0.74 µM | 229 nM | – | 287 nM | 367 nM | 224 nM | 1.67 µM | 236 nM | 256 nM | 922 nM | 358 nM | 372 nM | 5.5 µM | –
C[C@]12CCc3nc(Nc4cccc(O)c4)sc3C1=CC[C@@H]1[C@@H]2CC[C@]2(C)/C(=N\NC(N)=S)CC[C@@H]12 | > 100 µM | 3.49 µM | 3.73 µM | – | – | 3.63 µM | – | 1970 nM | 1860 nM | 1520 nM | – | 1750 nM | 4.95 µM | – | 1830 nM | 4410 nM | – | 1520 nM | 3.13 µM | 1800 nM
O=C(C=C1SCCS1)/C=C\c1ccc(Cl)cc1 | > 100 µM | 84.1 µM | > 100 µM | > 100 µM | > 100 µM | > 100 µM | > 100 µM | – | – | – | – | – | – | – | – | – | – | – | – | –
NC1=CC(=O)c2cccnc2C1=O | 4.88 µM | 19.8 µM | 14.6 µM | 13.1 µM | 2.78 µM | 2.95 µM | 3.69 µM | 1190 nM | 5820 nM | 3480 nM | 3280 nM | 1900 nM | 4.78 µM | 729 nM | – | – | 1300 nM | – | – | 1580 nM
COc1c(C)cc(O)cc1C=O | > 100 µM | > 100 µM | > 100 µM | > 100 µM | > 100 µM | > 100 µM | – | – | – | – | – | – | – | – | – | – | – | – | – | –
COC(=O)C(=O)C(C(=O)C(=O)Nc1cccc(C(C)=O)c1)c1nc2ccc([N+](=O)[O-])cc2[nH]c1=O (centres undefined) | > 100 µM | > 100 µM | > 100 µM | > 100 µM | > 100 µM | > 100 µM | > 100 µM | – | – | – | – | – | – | – | – | – | – | – | – | –
COc1cccc2ccc(C(=O)c3ccccc3)nc12 | > 100 µM | > 100 µM | – | > 100 µM | > 100 µM | > 100 µM | > 100 µM | – | – | – | – | – | – | – | – | – | – | – | – | –

Source: PubChem BioAssay (NCI)
